Test results from patent US12215173B2, “Kappa opioid receptor peptide amide ligands” (priority 2019, dated 2025).
Read-outs that look alike come from different tables or passages of the source.

How the values were obtained:
[1] = target: recombinant human kappa (KOR) opioid receptor (Homo sapiens (Human), UniProt P41145); assay: biochemical; assay type: binding
[2] = target: recombinant human mu (MOR) opioid receptor (Homo sapiens (Human), UniProt P35372); assay: Opioid receptor radioligand binding assay, MOR
[3] = target: recombinant human delta (DOR) opioid receptor (Homo sapiens (Human), UniProt P41143); assay: Opioid receptor radioligand binding assay, DOR
[4] = target: Opioid Kappa Receptor (recombinant human, HEK293 cells) (Homo sapiens (Human), UniProt P41145); assay: cell-based
[5] = HEK293 cell membranes, 0.5 nM [3H]diprenorphine
[6] = HEK293 cell membranes, 0.5 nM [3H]DAMGO, read-out: MOR, IC50
[7] = HEK293 cell membranes, 0.5 nM [3H]DADLE, read-out: DOR, IC50

Sequence of recombinant human delta (DOR) opioid receptor (P41143 whole entry, looked up): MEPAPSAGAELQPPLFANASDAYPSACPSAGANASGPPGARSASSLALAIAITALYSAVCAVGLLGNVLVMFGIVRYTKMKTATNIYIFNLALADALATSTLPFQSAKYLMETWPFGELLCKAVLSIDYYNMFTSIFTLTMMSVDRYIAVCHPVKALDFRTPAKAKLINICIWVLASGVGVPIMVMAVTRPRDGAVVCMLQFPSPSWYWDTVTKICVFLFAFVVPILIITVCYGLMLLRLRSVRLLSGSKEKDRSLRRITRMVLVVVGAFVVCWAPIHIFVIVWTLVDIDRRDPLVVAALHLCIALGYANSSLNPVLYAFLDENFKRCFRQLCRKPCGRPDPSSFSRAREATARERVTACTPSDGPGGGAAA

| SMILES | IC50 [1, 5] [nM] | IC50 [2, 6] [nM] | IC50 [3, 7] [nM] | EC50 ([4]; read-out: EC50) [nM] | IC50 [1] [nM] | EC50 [4] [nM] | IC50 [2] [nM] | IC50 [3] [nM] |
| --- | --- | --- | --- | --- | --- | --- | --- | --- |
| CC(C)C[C@@H](NC(=O)[C@@H](Cc1ccccc1)NC(=O)[C@H](N)Cc1ccccc1)C(=O)N[C@H](CCCCN)C(=O)N(C)C[C@H](O)[C@@H](O)[C@H](O)[C@H](O)CO [Compound 13-50] | 0.37 | 1110 | > 10000 | 12.2 |  |  |  |  |
| CCOC(=O)N1CCN(C(=O)[C@@H](CCCCN)NC(=O)[C@@H](CC(C)C)NC(=O)[C@@H](Cc2ccccc2)NC(=O)[C@H](N)Cc2ccccc2)CC1 [Compound 13-47] |  | > 10000 | > 10000 |  | 0.27 | 4.84 |  |  |
| CC(C)C[C@@H](NC(=O)[C@@H](Cc1ccccc1)NC(=O)[C@H](N)Cc1ccccc1)C(=O)N[C@H](CCCCN)C(=O)N1CCC(N)(C(=O)OC2CC2)C1 (stereo partly drawn) [Compound 40] | 0.41 |  |  | 11.9 |  |  | > 10000 | > 1000 |
| CC(C)C[C@@H](NC(=O)[C@@H](Cc1ccccc1)NC(=O)[C@H](N)Cc1ccccc1)C(=O)N[C@H](CCCCN)C(=O)N1CCC(NC(=O)[C@@H](N)CC(N)=O)CC1 [Compound 13-42] | 0.48 | > 10000 | > 10000 | 8.43 |  |  |  |  |
| CC(C)C[C@@H](NC(=O)[C@@H](Cc1ccccc1)NC(=O)[C@H](N)Cc1ccccc1)C(=O)N[C@H](CCCCN)C(=O)NC1CCN(C(=O)C(=O)N(C)C)CC1 [Compound 13-17] | 23.4 | > 10000 | > 10000 | 22 |  |  |  |  |
| COC(=O)/C=C/C(=O)N1CCC(NC(=O)[C@@H](CCCCN)NC(=O)[C@@H](CC(C)C)NC(=O)[C@@H](Cc2ccccc2)NC(=O)[C@H](N)Cc2ccccc2)CC1 [Compound 13-18] | 2 | > 10000 | > 10000 | 39.3 |  |  |  |  |
| CC(C)C[C@@H](NC(=O)[C@@H](Cc1ccccc1)NC(=O)[C@H](N)Cc1ccccc1)C(=O)N[C@H](CCCCN)C(=O)N1CCC(NC(=O)C(=O)NC2CC2)CC1 [Compound 13-22] | 0.096 | > 10000 | > 10000 | 24.8 |  |  |  |  |
| CC(C)C[C@@H](NC(=O)[C@@H](Cc1ccccc1)NC(=O)[C@H](N)Cc1ccccc1)C(=O)N[C@H](CCCCN)C(=O)NCc1n[nH]c(=O)[nH]1 [Compound 13-45] | 0.43 |  |  | 1.53 |  |  | > 10000 | > 10000 |
| CC(C)C[C@@H](NC(=O)[C@@H](Cc1ccccc1)NC(=O)[C@H](N)Cc1ccccc1)C(=O)N[C@H](CCCCN)C(=O)N1CCC(NC(=O)C(=O)N(C)C)CC1 [Compound 13-16] | 0.37 | 215 | 2410 | 19.4 |  |  |  |  |
